# Measured values published in article PMC2811323 (The Journal of neuroscience : the official journal of the …, 2009).
# What was measured:
# hM1 receptor = assay: Millipore GPCR Profiler functional screen, hM1; format: cell-based, human; conditions: two-addition protocol, BQCA 12.5 μM in first addition
# hM4 receptor = assay: Millipore GPCR Profiler functional screen, hM4; format: cell-based, human; conditions: two-addition protocol, BQCA 12.5 μM in first addition
# [1] = test system: 15 other closely related GPCRs; assay: Millipore GPCR Profiler functional screen, GPCR panel; format: cell-based
# [2] = test system: rat mPFC layer V pyramidal cells; assay: Inward; format: cell-based
# [3] = test system: rat mPFC layer V pyramidal cells; assay: Spontaneous EPSCs in acute rat brain slices; format: cell-based
# [4] = test system: mPFC layer V neurons, wildtype (WT) mice; assay: Spontaneous EPSCs in slices from wild-type mice; format: cell-based, mouse
# [5] = test system: rat mPFC layer V pyramidal cells; format: cell-based; conditions: 10 μM; 1 μM TTX
# [6] = 10 μM applied alone, −70 mV, 1 μM TTX
smiles,measurement,setting,value
"COc1ccc(Cn2cc(C(=O)[O-])c(=O)c3ccccc32)cc1.[Na+] [BQCA, Sodium 1-(4-methoxybenzyl)-4-oxo-1,4-dihydroquinoline-3-carboxylate]",Potentiation of the functional response,hM1 receptor,robust potentiation
same,Activity in the functional screen,hM4 receptor,no activity
same,Agonist activity when applied alone in the first addition,"[1]; 12.5 μM, any receptor tested",no agonist activity
same,Effect (PAM or antagonist activity) at the other GPCRs tested,"[1]; two-addition protocol, BQCA 12.5 μM in first addition",no effect
"C[N+](C)(C)CCOC(N)=O [CCh, carbachol]",Inward current (change in holding current),[2]; [6],16.55 ± 1.93 pA
same,Inward current (change in holding current),"[2]; 100 μM applied alone, −70 mV, 1 μM TTX",53.14 ± 5.92 pA
same,sEPSC amplitude,[3]; 10 μM applied alone,97.5 ± 4.4 % control
same,sEPSC frequency,[3]; 10 μM applied alone,90.1 ± 12.4 % control
same,sEPSC amplitude,[3]; 30 μM applied alone,108.3 ± 3.9 % control
same,sEPSC frequency,[3]; 30 μM applied alone,455.0 ± 101.9 % control
same,sEPSC amplitude,[3]; 100 μM applied alone,154.3 ± 46.2 % control
same,sEPSC frequency,[3]; 100 μM applied alone,887.6 ± 268.5 % control
same,sEPSC amplitude,[4]; 3 μM applied alone,102.6 ± 11.7 % of control
same,sEPSC frequency,[4]; 3 μM applied alone,83.2 ± 47.1%
same,sEPSC amplitude,[4]; 30 μM applied alone,143.1 ± 22.0%
same,sEPSC frequency,[4]; 30 μM applied alone,398.3 ± 56.2%
same,mEPSC amplitude,[5],88.6 ± 3.8 % control
O=C(CCNS(=O)(=O)c1cccc2nsnc12)N1CCN(c2ccncc2)CC1 [VU0255035],Inward current (change in holding current),[2]; [6],no effect
same,Inward current (change in holding current),[2]; 100 μM CCh in the presence of 10 μM VU0255035,11.78 ± 1.90 pA
same,sEPSC amplitude,[3]; 5 μM antagonist with 30 μM CCh,87.1 ± 3.5 % control
same,sEPSC frequency,[3]; 5 μM antagonist with 30 μM CCh,62.5 ± 10.1 % control
same,sEPSC amplitude,[3]; 5 μM applied alone,92.9 ± 3.4 % control
same,sEPSC frequency,[3]; 5 μM applied alone,114.1 ± 25.8 % control
